Patent publication US10946053B2, “Composition containing mixed extract of mulberry and Poria cocos bark for preventing, improving or treating neurodegenerative disorders” (NeuroBo Pharmaceuticals, Inc., priority 2014, dated 2021)

Columns and labels:
[1] = system: human Tau [pS199]; assay: Phosphorylated tau in neuronal cell line (ELISA), Aβ42 treated; assay type: cell-based; settings: Donepezil 10 μM
Description: Phosphorylated tau levels were measured in order to confirm the inhibitory effect of crude herbal extracts on tau hyper-phosphorylation. […] The phosphorylated tau was measured using human Tau [pS199] enzyme-linked immunosorbent assay (ELISA) KIT purchased from Invitrogen.

[2] = system: Aβ Infusion Model (Aβ42); assay: Novel object recognition (NOR) task, Aβ42 administration model; assay type: in vivo, ICR mice; settings: extracts 100 mg/kg, Donepezil 1 mg/kg
Description: (§1) The lyophilized drug, comparative drug and control drug were suspended in 3% HPMC aqueous solution, and all the drugs were prepared on the day of the experiment.
(§2) Inside a black box of 45 cm width, 45 cm length, 50 cm height, two plastic objects of the same size but different shapes were placed. The experimental animals were allowed to move freely for 8 minutes and the time spent on each object was measured (training session) 24 hours later, the experimental animals were placed in a box with one familiar object and one new object in the training session and the time spent in each object was measured (test session). The recorded values were calculated using the following equation (2), which is expressed as a recognition result of a new object. Recognition rate of new objects (%)=Time spent on new objects/(Time spent on new objects+Time spent on experienced objects)×100 [Equation 2]

[3] = system: beta-nerve growth factor; assay: NGF level measurement in nerve cell line (ELISA); assay type: cell-based, human; settings: extracts 10 μg/ml, Donepezil 10 μM
Description: NGF levels were measured in order to determine the mechanism of cognitive improvement of the herbal mixed extracts. […] NGF levels were measured using a beta-nerve growth factor human enzyme-linked immunosorbent assay (ELISA) KIT purchased from Abcam.

[4] = system: Scopolamine Induced Memory Impairment Model; assay: Novel object recognition (NOR) task, scopolamine model; assay type: in vivo, ICR mice; settings: extracts 100 mg/kg, Donepezil 1 mg/kg, test session
Description: (§3) Six-week-old ICR mice were used for the experiment and each experimental group consisted of 8 animals.
(§4) Normal animals were injected with the same amount of physiological saline. Behavioral studies were performed after 30 minutes of scopolamine administration.
as §1, §2

[5] = system: NeuN, a neural cell marker; assay: Immunohistochemical staining with NeuN in hippocampus, Aβ infusion model (FIG. 1); assay type: in vivo, ICR mice
Description: (§5) Six-week-old ICR mice were used in the experiment. The animals were anesthetized, fixed in a stereotaxic apparatus (Stoelting) and injected with 3 μl of vehicle (artificial CSF) or Aβ42 for 6 minutes using a Hamilton micro syringe (fitted with a 26-gauge needle).
(§6) Animals treated with Aβ42 were randomly divided into experimental groups. From 2 days after administration of Aβ42, the experimental drug and the positive control drug were administered once a day for 11 days.
For immunohistochemical staining, the Aβ infusion animal described in Experimental Example 1-1 was perfused with 1×PBS (phosphate buffered saline), fixed with 4% paraformaldehyde, and brain was extracted. This was fixed in the same solution for one day and stored in a 30% sucrose solution and the solution was changed every two days until frozen at […] After that, brain tissue was frozen sufficiently at −20° C. by dropping OCT (optimal cutting temperature) compound in a cryostat, and then made into a 30 μm-thick section, and stored at 4° C. in a preservative solution. Immunohistochemical staining was performed with the hippocampus portion. […]

[6] = system: Scopolamine Induced Memory Impairment Model; assay: Y-maze test, scopolamine model; assay type: in vivo, ICR mice; settings: extracts 100 mg/kg, Donepezil 1 mg/kg
Description: as §3, §4, §1
(§7) The Y-maze experiment was conducted to investigate the effect of short-term memory. The animals were placed on one arm of the Y-maze and allowed to move freely for 8 minutes. Spontaneous alternation and total number of entries were measured. When the animals were consecutively entered into three arms, they were defined as alternation entry, and the ratio was calculated by the following equation 1. Spontaneous alternation ratio (%)=[(number of changes)/(total number of arm entry−2)]×100 [Equation 1]

[7] = system: Aβ Infusion Model (Aβ42); assay: Passive avoidance task, Aβ42 administration model; assay type: in vivo, ICR mice; settings: Aβ42 injected, once a day for 11 days, extracts 100 mg/kg, Donepezil 1 mg/kg
Description: as §5, §6, §1
Passive avoidance experiments were performed in two independently separated bright and dark square boxes. Bright areas (20×20×20 cm) were illuminated with 50 W incandescent lamps. Light and dark areas (20×20×20 cm) were spaced 1 cm apart and 2 mm stainless steel rods were installed. […]
(§8) Acquisition trials were conducted 24 hours later. […] The time that the animals entered the dark zone was measured.
(§9) After performing the acquisition trials and giving a 24-hour rest period, the experimental animals were placed in a bright area for measuring the retention trial and the time until entering the dark area was measured. […]

[8] = system: Scopolamine Induced Memory Impairment Model; assay: Passive avoidance task, scopolamine induced memory impairment model; assay type: in vivo, ICR mice; settings: scopolamine 1 mg/kg i.p., oral, extracts 100 mg/kg, Donepezil 1 mg/kg
Description: as §3, §4, §1
Passive avoidance experiments were performed in two independently separated bright and dark square boxes. Bright areas (20×20×20 cm) were illuminated with 50 W incandescent lamps. Light and dark areas (20×20×20 cm) were spaced 1 cm apart and 2 mm stainless steel rods were installed.
In the habituation phase, the two sections were separated by a guillotine door (5×5 cm), and the guillotine door was opened after 30 seconds after placing the experimental animals in the light section. The animals were allowed to freely navigate. When they reached the dark area, the guillotine door was closed and the animals were taken out after 3 seconds.
as §8, §9

[9] = system: Aβ Infusion Model (Aβ42); assay: Y-maze test, Aβ42 administration model; assay type: in vivo, ICR mice; settings: extracts 100 mg/kg, Donepezil 1 mg/kg
Description: as §5, §6, §1, §7

In the case of COc1cc2c(cc1OC)C(=O)C(CC1CCN(Cc3ccccc3)CC1)C2 (stereo not shown) [Donepezil], the “inhibitory effect on tau phosphorylation, in words” value ([1]; SH-SY5Y cells, Aβ42) is reported as “did not show any inhibitory effect”, the “Phosphorus tau pg/g protein” value ([1]; differentiated SH-SY5Y cells, Aβ42 48 hours, extracts 10 μg/ml) is reported as 1699 pg/g protein and the “Total object recognition on time” value [2] is reported as 26.8. For the same compound, the “effect of promoting NGF production in nerve cell line, in words” value ([3]; SH-SY5Y cells) was “did not show the effect of promoting NGF production”, the “NGF (pg/g protein)” value ([3]; differentiated SH-SY5Y cells) was 421 pg/g protein and the “Familiar object recognition time” value [4] was 7.9. For the same compound, the “New object recognition time” value [4] was 12.9, the “Total object recognition time” value [4] was 20.8 and the “NeuN expression / neuroprotective effect (FIG. 1), in words” value [5] was “failed to show neuroprotective effects”. For the same compound, the “spontaneous alternation (%)” value [6] was 67.2%, the “Total number of entries” value ([6]; 8 minutes) was 64 and the True enter ([6]; 8 minutes) was 43. For the same compound, the Acquisition time ([7]; acquisition trial) was 78.4, the Retention time ([7]; retention trial) was 244.2 and the Retention time ([8]; retention trial 24 h after acquisition) was 243.5. The Acquisition time ([8]; time to enter dark area, acquisition trial) was 77.4, the “spontaneous alternation (%)” value [9] was 70.5% and the “Total number of entries” value ([9]; 8 minutes) was 61. For the same compound, the True enter ([9]; 8 minutes) was 43.
